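Tested at 5 concentrations; 48 h exposure; 96-well plates; endpoints linearly interpolated, else capped at highest concentration. The concentration for 50% growth inhibition is given as GI50. TGI: concentration producing complete growth inhibition.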
Key:
Assay in all cases: NCI-60 cell line screen, 48 h
A498 renal = tested on: A498 renal
RXF 393 renal = tested on: RXF 393 renal
K-562 leukemia = tested on: K-562 leukemia
MDA-MB-435 = tested on: MDA-MB-435
HT29 colon = tested on: HT29 colon
OVCAR-5 ovarian = tested on: OVCAR-5 ovarian
CAKI-1 renal = tested on: CAKI-1 renal
TK-10 renal = tested on: TK-10 renal
NCI-H23 lung = tested on: NCI-H23 lung
SNB-75 CNS = tested on: SNB-75 CNS

Compound | GI50 (A498 renal) | TGI (A498 renal) | GI50 (RXF 393 renal) | TGI (RXF 393 renal) | GI50 (K-562 leukemia) | TGI (K-562 leukemia) | GI50 (MDA-MB-435) | TGI (MDA-MB-435) | GI50 (HT29 colon) | TGI (HT29 colon) | GI50 (OVCAR-5 ovarian) | TGI (OVCAR-5 ovarian) | GI50 (CAKI-1 renal) | TGI (CAKI-1 renal) | GI50 (TK-10 renal) | TGI (TK-10 renal) | GI50 (NCI-H23 lung) | TGI (NCI-H23 lung) | GI50 (SNB-75 CNS) | TGI (SNB-75 CNS)
Nc1nn(C(=O)Nc2c(F)cccc2F)c2ccccc12 | 31.4 µM | > 100 µM | 20200 nM | > 100 µM | > 100 µM | > 100 µM | 54.9 µM | > 100 µM | 74.6 µM | > 100 µM | > 100 µM | > 100 µM | 45.3 µM | > 100 µM | > 100 µM | > 100 µM | 95.6 µM | > 100 µM |  | 
CCCN(CCC)c1ccc(C=O)c(C)c1 | 1.27 µM | 3.28 µM | 34300 nM | > 100 µM | 68.7 µM | > 100 µM | 32.6 µM | > 100 µM | 33.5 µM | > 100 µM | 58.5 µM | > 100 µM | 33.7 µM | > 100 µM | 41.6 µM | > 100 µM | 35.8 µM | > 100 µM | 22300 nM | 97.7 µM
COc1ccc(-c2cn(-c3cc(OC)c(OC)c(OC)c3)c(=O)[nH]2)cc1OC | 80.3 µM | > 100 µM | > 100000 nM | > 100 µM | > 100 µM | > 100 µM | > 100 µM | > 100 µM | > 100 µM | > 100 µM | > 100 µM | > 100 µM | > 100 µM | > 100 µM | > 100 µM | > 100 µM | > 100 µM | > 100 µM | 71700 nM | > 100 µM
CCNCCNc1cc(-c2ccc(C(F)(F)F)cc2)c(C#N)c2nc3cc(Cl)c(Cl)cc3n12 | 2 µM | 3.6 µM | 1300 nM | 2.62 µM | 0.183 µM | 0.365 µM | 1.65 µM | 3.16 µM | 1.64 µM | 3.08 µM | 2.03 µM | 3.68 µM | 1.45 µM | 2.82 µM | 2.38 µM | 3.87 µM | 1.77 µM | 3.52 µM | 1380 nM | 2.69 µM
CCCCCCCCCCCCCCCCN(CC)CC | 17.9 µM | 37.2 µM | 1880 nM | 4.2 µM |  |  | 1.95 µM | 3.86 µM | 2.13 µM | 4.59 µM | 1.94 µM | 4.26 µM | 1.69 µM | 3.24 µM | 1.71 µM | 3.4 µM | 2.83 µM | 9 µM | 2390 nM | 9.03 µM
O=[N+]([O-])c1oc2ccc3ccccc3c2c1CCO |  | 0.72 µM |  | 3.71 µM |  | > 100 µM |  | 3.16 µM |  | 25.7 µM |  | 34.9 µM |  | 8.58 µM |  | 27.7 µM |  | 17 µM |  | 16.7 µM
Cc1ccccc1C(C(=O)NC1CCCCC1)N(C(=O)CNc1ccc(C#N)cc1)c1cccc(F)c1 (stereo unspecified) | 24 µM | 74.4 µM | 1840 nM | 5.6 µM | > 95.7 µM | > 100 µM | > 72.4 µM | > 100 µM | > 100 µM | > 100 µM | 46.6 µM | > 100 µM | 14.7 µM | > 62.6 µM | 24 µM | 71.7 µM | 25.1 µM | > 77.6 µM | 1380 nM | 8.97 µM

Source: PubChem BioAssay (NCI)
